From patent US11702409B2, “Pyrazolyl derivatives useful as anti-cancer agents” (NOVARTIS AG, priority 2019, dated 2023)

Target: KRasG12C (M1-K169, biotinylated on the N-terminus) (Homo sapiens (Human), UniProt P01116, G12C)
Experiment: Covalent competition assay (scintillation proximity assay, competition with radiolabeled covalent probe Compound B)
Type: binding
Settings: in vitro KRASG12C activity; 10 nM KRasG12C:GDP, 25 nM radio-ligand and 475 nM unlabelled ligand, incubated 2 hours; read-out: Covalent Competition Assay IC50
Outline: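 Biotinylated KRasG12C (M1-K169):GDP incubated 2 h with agitation with serially diluted compounds premixed with a fixed concentration of radiolabeled covalent probe; scintillation proximity read-out of competition for covalent modification. Buffer 20 mM Tris-HCl pH 7.5, 150 mM NaCl, 0.1 mM MgCl2, 0.01% Tween-20. IC50 from 4-parameter fit.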

Row | Compound | IC50
1 | C=CC(=O)N1CC2(CC(n3nc(-c4cccnc4)c(-c4c(Cl)c(C)cc5[nH]ncc45)c3C(F)F)C2)C1 (single isomer, unassigned) [Example 87b] | > 50 µM
2 | C=CC(=O)N1CC2(CC(n3nc(-c4ccncc4C)c(-c4c(Cl)c(C)cc5[nH]ncc45)c3C)C2)C1 (single isomer, unassigned) [Example 49b, 1-(6-(4-(5-chloro-6-methyl-1H-indazol-4-yl)-5-methyl-3-(3-methylpyridin-4-yl)-1H-pyrazol-1-yl)-2-azaspiro[3.3]heptan-2-yl)prop-2-en-1-one] | 5.38 µM
3 | C=CC(=O)N1CC2(CC(n3nc(-c4cnc(N)c(F)c4)c(-c4c(Cl)c(C)cc5[nH]ncc45)c3C)C2)C1 (single isomer, unassigned) [Example 20a] | 0.148 µM
4 | C=CC(=O)N1CC2(CC(n3nc(-c4ccc5c(cnn5C)c4)c(-c4c(Cl)c(C)cc5[nH]ncc45)c3C)C2)C1 (single isomer, unassigned) [Example 1a] | 0.017 µM
5 | C=CC(=O)N1CC2(CC(n3nc(-c4ccc5nn(CCN6CC(OC)C6)cc5c4)c(-c4c(Cl)c(C)cc5[nH]ncc45)c3C)C2)C1 (single isomer, unassigned) [Example 82a] | 0.012 µM
6 | C=CC(=O)N1CC2(CC(n3nc(-c4ccc5c(c4)CCN5CCOC)c(-c4c(Cl)c(C)cc5[nH]ncc45)c3C)C2)C1 (single isomer, unassigned) [Example 44b] | > 5 µM
7 | C=CC(=O)N1CC2(CC(n3nc(-c4ccccc4)c(-c4c(Cl)c(C)cc5[nH]ncc45)c3C)C2)C1 (single isomer, unassigned) [Example 26b] | 45.6 µM
8 | C=CC(=O)N1CC2(CC(n3nc(-c4cccc5c4cnn5C)c(-c4c(Cl)c(C)cc5[nH]ncc45)c3C)C2)C1 (single isomer, unassigned) [Example 29b] | 15 µM
9 | C=CC(=O)N1CC2(CC(n3nc(-c4cnc5c(ccn5C)c4)c(-c4c(Cl)c(C)cc5[nH]ncc45)c3C)C2)C1 (single isomer, unassigned) [Example 8b] | 2.9 µM
10 | C=CC(=O)N1CC2(CC(n3nc(C4=CN5CC(C)(C)N=C5C(F)=C4)c(-c4c(Cl)c(C)cc5[nH]ncc45)c3C)C2)C1 (single isomer, unassigned) [Example 73a] | 5.31 µM
11 | C=CC(=O)N1CC2(CC(n3nc(-c4ccc5c(c4)CC(=O)N5C)c(-c4c(Cl)c(C)cc5[nH]ncc45)c3C)C2)C1 (single isomer, unassigned) [Example 24b] | > 50 µM
12 | C=CC(=O)N1CC2(CC(n3nc(-c4ccc(C#N)nc4)c(-c4c(Cl)c(C)cc5[nH]ncc45)c3C)C2)C1 (single isomer, unassigned) [Example 11a] | 0.973 µM
13 | C=CC(=O)N1CC2(CC(n3nc(-c4ccc5c(c4)C(=O)OC5)c(-c4c(Cl)c(C)cc5[nH]ncc45)c3C)C2)C1 (single isomer, unassigned) [Example 54b] | > 50 µM
14 | C=CC(=O)N1CC2(CC(n3nc(-c4cncc(C#N)c4)c(-c4c(Cl)c(C)cc5[nH]ncc45)c3C)C2)C1 (single isomer, unassigned) [Example 10a] | 1.2 µM
15 | C=CC(=O)N1CC2(CC(n3nc(-c4cnc5c(c4)ncn5C)c(-c4c(Cl)c(C)cc5[nH]ncc45)c3C)C2)C1 (single isomer, unassigned) [Example 38b] | > 50 µM
16 | C=CC(=O)N1CC2(CC(n3nc(-c4ccc5nn(CCOC)cc5c4)c(-c4c(Cl)c(C)cc5[nH]nc(N)c45)c3C)C2)C1 (single isomer, unassigned) [Example 69a, 1-(6-{(4M)-4-(3-Amino-5-chloro-6-methyl-1H-indazol-4-yl)-3-[2-(2-methoxyethyl)-2H-indazol-5-yl]-5-methyl-1H-pyrazol-1-yl}-2-azaspiro[3.3]heptan-2-yl)prop-2-en-1-one] | 0.009 µM
17 | C=CC(=O)N1CC2(CC(n3nc(-c4cnn(S(=O)(=O)C5CC5)c4)c(-c4c(Cl)c(C)cc5[nH]ncc45)c3C)C2)C1 (single isomer, unassigned) [Example 36b] | > 50 µM
18 | C=CC(=O)N1CC2(CC(n3nc(-c4ccc5c(c4)ncn5C)c(-c4c(Cl)c(C)cc5[nH]ncc45)c3C)C2)C1 (single isomer, unassigned) [Example 30b] | > 50 µM
19 | C=CC(=O)N1CC2(CC(n3nc(-c4cnc(OC)nc4)c(-c4c(Cl)ccc5[nH]ncc45)c3C)C2)C1 (single isomer, unassigned) [Example 90b] | > 50 µM
20 | C=CC(=O)N1CC2(CC(n3nc(-c4ccc(CO)cc4)c(-c4c(Cl)c(C)cc5[nH]ncc45)c3C)C2)C1 (single isomer, unassigned) [Example 47a, 1-(6-{(4M)-4-(5-Chloro-6-methyl-1H-indazol-4-yl)-3-[4-(hydroxymethyl)phenyl]-5-methyl-1H-pyrazol-1-yl}-2-azaspiro[3.3]heptan-2-yl)prop-2-en-1-one] | 0.043 µM
21 | C=CC(=O)N1CC2(CC(n3nc(-c4ccc5c(c4)CN(C)C(=O)C5)c(-c4c(Cl)c(C)cc5[nH]ncc45)c3C)C2)C1 (single isomer, unassigned) [Example 21a] | 0.06 µM
22 | C=CC(=O)N1CC2(CC(n3nc(-c4cncnc4)c(-c4c(Cl)c(Cl)cc5[nH]ncc45)c3C(F)F)C2)C1 (single isomer, unassigned) [Example 86a] | 1.3 µM
23 | C=CC(=O)N1CC2(CC(n3nc(-c4ccc5c(c4)CC(=O)N5C)c(-c4c(Cl)c(C)cc5[nH]ncc45)c3C)C2)C1 (single isomer, unassigned) [Example 24a] | 0.071 µM
24 | C=CC(=O)N1CC2(CC(n3nc(-c4ccc(-n5ccc(N)n5)nc4)c(-c4c(Cl)c(C)cc5[nH]ncc45)c3C)C2)C1 [Example 53, 1-(6-(3-(6-(3-amino-1H-pyrazol-1-yl)pyridin-3-yl)-4-(5-chloro-6-methyl-1H-indazol-4-yl)-5-methyl-1H-pyrazol-1-yl)-2-azaspiro[3.3]heptan-2-yl)prop-2-en-1-one] | 0.32 µM
25 | C=CC(=O)N1CC2(CC(n3nc(-c4ccccc4)c(-c4c(Cl)c(C)cc5[nH]ncc45)c3C)C2)C1 (single isomer, unassigned) [Example 26a, 1-{6-[(4M)-4-(5-Chloro-6-methyl-1H-indazol-4-yl)-5-methyl-3-phenyl-1H-pyrazol-1-yl]-2-azaspiro[3.3]heptan-2-yl}prop-2-en-1-one] | 0.043 µM
26 | C=CC(=O)N1CC2(CC(n3nc(-c4ccc(-n5nccc5N)nc4)c(-c4c(Cl)c(C)cc5[nH]ncc45)c3C)C2)C1 (single isomer, unassigned) [Example 7b] | > 5 µM

Next, values leading:

Row | IC50 | Compound
27 | 23.4 µM | C=CC(=O)N1CC2(CC(n3nc(-c4ccc(CO)cc4)c(-c4c(Cl)c(C)cc5[nH]ncc45)c3C)C2)C1 (single isomer, unassigned) [Example 47b, 1-(6-(4-(5-chloro-6-methyl-1H-indazol-4-yl)-3-(4-(hydroxymethyl)phenyl)-5-methyl-1H-pyrazol-1-yl)-2-azaspiro[3.3]heptan-2-yl)prop-2-en-1-one]
28 | 0.101 µM | C=CC(=O)N1CC2(CC(n3nc(-c4ccc5nnccc5c4)c(-c4c(Cl)c(C)cc5[nH]ncc45)c3C)C2)C1 (single isomer, unassigned) [Example 71a, 1-(6-(4-(5-chloro-6-methyl-1H-indazol-4-yl)-3-(cinnolin-6-yl)-5-methyl-1H-pyrazol-1-yl)-2-azaspiro[3.3]heptan-2-yl)prop-2-en-1-one]
29 | 0.162 µM | C=CC(=O)N1CC2(CC(n3nc(-c4ccc(-n5nccc5N)nc4)c(-c4c(Cl)c(C)cc5[nH]ncc45)c3C)C2)C1 (single isomer, unassigned) [Example 7a]
30 | 14.8 µM | C=CC(=O)N1CC2(CC(n3nc(-c4ccc(N5CCN(C)C5=O)cc4)c(-c4c(Cl)c(C)cc5[nH]ncc45)c3C)C2)C1 (single isomer, unassigned) [Example 13b]
31 | 5.3 µM | C=CC(=O)N1CC2(CC(n3nc(-c4cccc(=O)n4C)c(-c4c(Cl)ccc5[nH]ncc45)c3C)C2)C1 (single isomer, unassigned) [Example 91a]
32 | 0.22 µM | C=CC(=O)N1CC2(CC(n3nc(-c4cccc5c4cnn5C)c(-c4c(Cl)c(C)cc5[nH]ncc45)c3C)C2)C1 (single isomer, unassigned) [Example 29a]
33 | > 50 µM | C=CC(=O)N1CC2(CC(n3nc(-c4ccnc(C)c4)c(-c4c(Cl)ccc5[nH]ncc45)c3C)C2)C1 (single isomer, unassigned) [Example 28b]
34 | 0.01 µM | C=CC(=O)N1CC2(CC(n3nc(-c4ccc5nn(CCOCCOC)cc5c4)c(-c4c(Cl)c(C)cc5[nH]ncc45)c3C)C2)C1 (single isomer, unassigned) [Example 43a, 1-{6-[(4M)-4-(5-Chloro-6-methyl-1H-indazol-4-yl)-3-{2-[2-(2-methoxyethoxy)ethyl]-2H-indazol-5-yl}-5-methyl-1H-pyrazol-1-yl]-2-azaspiro[3.3]heptan-2-yl}prop-2-en-1-one]
35 | 0.043 µM | C=CC(=O)N1CC2(CC(n3nc(-c4ccc(CN5CCCS5(=O)=O)cc4)c(-c4c(Cl)c(C)cc5[nH]ncc45)c3C)C2)C1 (single isomer, unassigned) [Example 5a]
36 | > 50 µM | C=CC(=O)N1CC2(CC(n3nc(-c4ccc5c(c4)CN(C)C5)c(-c4c(Cl)c(C)cc5[nH]ncc45)c3C)C2)C1 (single isomer, unassigned) [Example 75b]
37 | > 5 µM | C=CC(=O)N1CC2(CC(n3nc(-c4ccc(NCCOC)cc4F)c(-c4c(Cl)c(C)cc5[nH]ncc45)c3C)C2)C1 (single isomer, unassigned) [Example 61b, 1-(6-(4-(5-chloro-6-methyl-1H-indazol-4-yl)-3-(2-fluoro-4-((2-methoxyethyl)amino)phenyl)-5-methyl-1H-pyrazol-1-yl)-2-azaspiro[3.3]heptan-2-yl)prop-2-en-1-one]
38 | 13.9 µM | C=CC(=O)N1CC2(CC(n3nc(-c4ccc5c(c4)N(C)CCO5)c(-c4c(Cl)c(C)cc5[nH]ncc45)c3C)C2)C1 (single isomer, unassigned) [Example 31a]
